What was measured:
CB2 = CB2 (Homo sapiens, UniProt P34972); conditions: WHO assessment; cited from earlier work
[1] = Dispersion in simulated gastric and intestinal fluids; format: physicochemical
Protocol: Dispersion of the formulations in simulated gastric and intestinal fluids is evaluated over a 12 hour period.

[2] = cited from earlier work

Chain of CB2 (P34972 whole entry, species assumed): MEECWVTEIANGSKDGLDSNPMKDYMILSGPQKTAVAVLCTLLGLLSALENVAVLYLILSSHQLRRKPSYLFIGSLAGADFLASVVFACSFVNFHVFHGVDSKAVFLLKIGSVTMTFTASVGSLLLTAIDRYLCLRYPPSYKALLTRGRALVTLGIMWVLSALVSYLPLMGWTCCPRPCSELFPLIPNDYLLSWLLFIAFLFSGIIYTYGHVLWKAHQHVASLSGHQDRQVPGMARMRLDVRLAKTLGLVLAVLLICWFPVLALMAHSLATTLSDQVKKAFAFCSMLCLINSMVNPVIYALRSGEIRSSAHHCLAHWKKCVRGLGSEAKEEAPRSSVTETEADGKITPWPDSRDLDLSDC

C=C(C)[C@@H]1CCC(C)=C[C@H]1c1c(O)cc(CCCCC)cc1O [Cannabidiol]
affinity to CB2 (CB2): low affinity
dispersion ([1]; FaSSGF, pH 1.2, 12 hour period): no dispersion
dispersion pattern in the biorelevant media ([1]; FaSSIF, FeSSIF and FaSSGF overall): poor dispersion
dispersion ([1]; FaSSIF, pH 6.5, 12 hour period): about 20%
dispersion ([1]; FeSSIF, pH 5.5, 12 hour period): about 20%
aqueous solubility [2]: approximately 0.013 milligrams per milliliter
